We go through 1 compound from patent US20220273664A1, “Mitochondrial Targeted Releasable Linker” (THE GOVERNING COUNCIL OF THE UNIVERSITY OF TORONTO, priority 2017, published 2022).

Test [1] has as its system K562 cells. Briefly: toxicity at different time points in K562 cells. It is filed as cell-based. Conditions: K562 leukemia cells, up to 48 hours. The source says:
FIG. 7A is a graphical representation of the toxicity of compound 5 at different time points in K562 cells.
FIG. 7B is a graphical representation of the toxicity of compound 6 at different time points in K562 cells.
FIG. 10 is a graphical representation of the toxicity of luminespib (compound 7, as shown in FIG. 6C) at different time points in K562 cells.

In test [2] the test system is K562 cells. As to the kind of experiment: apoptosis measured via Annexin V staining. It is filed as cell-based. Conditions: 2.5 μM, 24 hours.
Method: FIG. 8A is a chart illustrating apoptosis as measured via Annexin V staining of K562 cells treated for 24 hours with 2.5 μM of the compounds indicated. Cell populations were gated with annexin V+/Sytox red− cells as early apoptotic, and annexin V+/Sytox red+ cells as late apoptotic.
As controls, the parent compound luminespib (FIG. 8C, compound 7), and the empty disulfide vector (FIG. 6D) were also tested. The cells were treated with 2.5 μM of each compound.

For `CCNC(=O)c1noc(-c2cc(C(C)C)c(O)cc2O)c1-c1ccc(CN2CCOCC2)cc1` [luminespib, 5-(2,4-Dihydroxy-5-isopropylphenyl)-N-ethyl-4-(4-(morpholinomethyl)phenyl)isoxazole-3-carboxamide], in test [1], the “cell toxicity over time” value is “growth inhibition”. Moreover, the “apoptosis (early and late apoptotic cell populations)” value in test [2] was “no increase”.
